The target of experiment [1] is T1, Serine protease 1 (Bos taurus, UniProt P00760).
T1 sequence (P00760 whole entry): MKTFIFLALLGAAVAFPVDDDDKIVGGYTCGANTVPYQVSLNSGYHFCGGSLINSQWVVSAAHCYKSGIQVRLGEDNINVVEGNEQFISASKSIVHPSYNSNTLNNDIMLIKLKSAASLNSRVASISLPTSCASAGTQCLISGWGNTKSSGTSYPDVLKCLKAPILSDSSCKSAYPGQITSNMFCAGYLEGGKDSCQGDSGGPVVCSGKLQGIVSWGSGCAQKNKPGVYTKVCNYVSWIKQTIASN
Briefly: Enzyme Assay and Determination of the Inhibition Constants.

Experiment [2] has as its target Coagulation factor X (Homo sapiens, UniProt P00742). The experiment is described as above.

Here are results for 26 molecules from BindingDB's records for doi:10.1021/jm990041+ (Rhone-Poulenc Rorer, 1999).

The structures appear in SMILES notation.

Sequence of Coagulation factor X (P00742 41-179 limits assumed): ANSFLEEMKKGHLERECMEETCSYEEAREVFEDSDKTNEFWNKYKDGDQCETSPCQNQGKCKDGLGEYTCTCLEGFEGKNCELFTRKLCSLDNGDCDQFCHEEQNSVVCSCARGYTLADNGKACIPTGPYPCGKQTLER
Sequence of Coagulation factor X (P00742 235-488 limits assumed): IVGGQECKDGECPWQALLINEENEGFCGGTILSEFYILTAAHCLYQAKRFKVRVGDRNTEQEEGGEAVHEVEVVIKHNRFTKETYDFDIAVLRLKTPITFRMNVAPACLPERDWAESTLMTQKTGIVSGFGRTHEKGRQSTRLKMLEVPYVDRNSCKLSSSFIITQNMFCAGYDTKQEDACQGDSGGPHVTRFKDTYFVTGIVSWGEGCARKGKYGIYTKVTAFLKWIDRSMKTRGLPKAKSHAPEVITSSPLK

Broadly, the Ki is the equilibrium dissociation constant of an inhibitor or competing ligand from its target. The molecule `N=C(N)c1cccc(CN2CC[C@H](NS(=O)(=O)c3ccc(-c4ccccn4)s3)C2=O)c1` [3-{[(3S)-2-oxo-3-{[5-(pyridin-2-yl)thiophene-2-]sulfonamido}pyrrolidin-1-yl]methyl}benzene-1-carboximidamide] yielded an inhibitory constant (Ki) in experiment [1] of 2100 nM. `N=C(N)c1ccc(N)c(CN2CC[C@H](NS(=O)(=O)c3ccc(-c4ccon4)s3)C2=O)c1` [4-Amino-3-[3-(S)-(5-isoxazol-3-ylthiophene-2-ylsulfonylamino)-2-oxopyrrolidin-1-ylmethyl]benzamidine] had a Ki in experiment [1] of 1700 nM. Still for that read-out and setting: for `N=C(N)c1ccc(F)c(CN2CC[C@H](NS(=O)(=O)c3ccc(-c4cccnc4)s3)C2=O)c1` [4-fluoro-3-[((3S)-2-oxo-3-{[(5-pyridin-3-ylthien-2-yl)sulfonyl]amino}pyrrolidin-1-yl)methyl]benzenecarboximidamide] the value was over 2900 nM; for `N=C(N)c1cccc(CN2CC[C@H](NS(=O)(=O)c3ccc(-c4cccnc4)cc3)C2=O)c1` [3-{[(3S)-2-oxo-3-{[4-(pyridin-3-yl)benzene]sulfonamido}pyrrolidin-1-yl]methyl}benzene-1-carboximidamide], over 2900 nM. On to `N=C(N)c1cccc(CN2CC[C@H](NS(=O)(=O)c3ccc(-c4cc[n+]([O-])cc4)cc3)C2=O)c1` [4-(4-{[(3S)-1-[(3-carbamimidoylphenyl)methyl]-2-oxopyrrolidin-3-yl]sulfamoyl}phenyl)-1-oxidopyridin-1-ium], for which, in experiment [1], the Ki was over 2900 nM. In experiment [1] (pH 7.5, 22 °C), `COc1ccc2ccc(S(=O)(=O)N[C@H]3CCN(Cc4ccc(O)c(C(=N)N)c4)C3=O)cc2c1` [2-hydroxy-5-{[(3S)-3-[(7-methoxynaphthalene-2-)sulfonamido]-2-oxopyrrolidin-1-yl]methyl}benzene-1-carboximidamide] returned a Ki of over 2900 nM. Still for that read-out and setting: for `N=C(N)c1cccc(CN2CC[C@H](NS(=O)(=O)c3ccc(-c4ccccc4)cc3)C2=O)c1` [3-{[(3S)-2-oxo-3-[(4-phenylbenzene)sulfonamido]pyrrolidin-1-yl]methyl}benzene-1-carboximidamide] the value was over 2900 nM. The molecule `COc1ccc2ccc(S(=O)(=O)N[C@H]3CCN(Cc4cc(C(=N)N)ccc4N)C3=O)cc2c1` [4-amino-3-{[(3S)-3-[(7-methoxynaphthalene-2-)sulfonamido]-2-oxopyrrolidin-1-yl]methyl}benzene-1-carboximidamide] had a Ki in experiment [1] (pH 7.5, 22 °C) of 299 nM.

In experiment [1] (pH 7.5, 22 °C), `COc1ccc2ccc(S(=O)(=O)N(C)[C@H]3CCN(Cc4cc(C(=N)N)ccc4NC(C)=O)C3=O)cc2c1` [N-(4-carbamimidoyl-2-{[(3S)-3-[(7-methoxynaphthalene-2-)(methyl)sulfonamido]-2-oxopyrrolidin-1-yl]methyl}phenyl)acetamide] showed a Ki of over 2900 nM. Take `COc1ccc2ccc(S(=O)(=O)N[C@H]3CCN(Cc4cc(C(=N)N)ccc4OCC(=O)O)C3=O)cc2c1` [2-(4-carbamimidoyl-2-{[(3S)-3-[(7-methoxynaphthalene-2-)sulfonamido]-2-oxopyrrolidin-1-yl]methyl}phenoxy)acetic acid]: the Ki in experiment [1] (pH 7.5, 22 °C) was over 2900 nM. In turn, `COc1ccc2ccc(S(=O)(=O)N[C@H]3CCN(Cc4cc(C(=N)N)ccc4O)C3=O)cc2c1` [4-hydroxy-3-{[(3S)-3-[(7-methoxynaphthalene-2-)sulfonamido]-2-oxopyrrolidin-1-yl]methyl}benzene-1-carboximidamide] gave an inhibition constant (Ki) in experiment [1] (pH 7.5, 22 °C) of 305 nM. The same measure, in the same setting: with `COc1ccc2ccc(S(=O)(=O)N[C@H]3CCN(Cc4cc(N)cc(C(=N)N)c4)C3=O)cc2c1` [3-Amino-5-[3-(S)-(7-methoxynaphthalen-2-ylsulfonylamino)-2-oxopyrrolidin-1-ylmethyl]benzamidine] the figure was over 2900 nM. Same read-out and setting: for `COc1ccc2ccc(S(=O)(=O)N(C)[C@H]3CCN(Cc4cccc(C(=N)N)c4)C3=O)cc2c1` [3-{[(3S)-3-[(7-methoxynaphthalene-2-)(methyl)sulfonamido]-2-oxopyrrolidin-1-yl]methyl}benzene-1-carboximidamide] the value was 704 nM. For `N=C(N)c1ccc(O)c(CN2CC[C@H](NS(=O)(=O)c3ccc(-c4ccon4)s3)C2=O)c1` [4-hydroxy-3-{[(3S)-3-{[5-(1,2-oxazol-3-yl)thiophene-2-]sulfonamido}-2-oxopyrrolidin-1-yl]methyl}benzene-1-carboximidamide], the Ki in experiment [1] came to 2900 nM.

With `N=C(N)c1cccc(CN2CC[C@H](NS(=O)(=O)c3ccc(-c4ccncc4)s3)C2=O)c1` [3-{[(3S)-2-oxo-3-{[5-(pyridin-4-yl)thiophene-2-]sulfonamido}pyrrolidin-1-yl]methyl}benzene-1-carboximidamide], in experiment [1], the Ki was over 2900 nM.

Regarding `C[n+]1ccc(-c2ccc(S(=O)(=O)N[C@H]3CCN(Cc4cccc(C(=N)N)c4)C3=O)cc2)cc1` [4-(4-{[(3S)-1-[(3-carbamimidoylphenyl)methyl]-2-oxopyrrolidin-3-yl]sulfamoyl}phenyl)-1-methylpyridin-1-ium], the figures for the inhibitory constant (Ki) in experiment [2] and in experiment [1] were over 1000 nM and over 2900 nM, respectively.

In turn, `N=C(N)c1cccc(CN2CC[C@H](NS(=O)(=O)c3ccc(-c4ccccn4)cc3)C2=O)c1` [3-{[(3S)-2-oxo-3-{[4-(pyridin-2-yl)benzene]sulfonamido}pyrrolidin-1-yl]methyl}benzene-1-carboximidamide] registered a Ki in experiment [1] (pH 7.5, 22 °C) of over 2900 nM. As for `COc1nccc(-c2ccc(S(=O)(=O)N[C@H]3CCN(Cc4cccc(C(=N)N)c4)C3=O)s2)n1` [3-{[(3S)-3-{[5-(2-methoxypyrimidin-4-yl)thiophene-2-]sulfonamido}-2-oxopyrrolidin-1-yl]methyl}benzene-1-carboximidamide], the Ki in experiment [1] is over 2900 nM. As to `N=C(N)c1cccc(CN2CC[C@H](NS(=O)(=O)c3ccc(-c4ccncc4)cc3)C2=O)c1` [3-{[(3S)-2-oxo-3-{[4-(pyridin-4-yl)benzene]sulfonamido}pyrrolidin-1-yl]methyl}benzene-1-carboximidamide], the Ki in experiment [1] was over 2900 nM. Regarding `COc1ccc2ccc(S(=O)(=O)N[C@H]3CCN(Cc4cccc(C(=N)N)c4)C3=O)cc2c1` [3-{[(3S)-3-[(7-methoxynaphthalene-2-)sulfonamido]-2-oxopyrrolidin-1-yl]methyl}benzene-1-carboximidamide], the inhibitory constant (Ki) in experiment [1] (pH 7.5, 22 °C) is 853 nM. In turn, `N=C(N)c1ccc(N)c(CN2CC[C@H](NS(=O)(=O)c3ccc(-c4cccnc4)s3)C2=O)c1` [4-amino-3-{[(3S)-2-oxo-3-{[5-(pyridin-3-yl)thiophene-2-]sulfonamido}pyrrolidin-1-yl]methyl}benzene-1-carboximidamide] displayed an inhibition constant (Ki) in experiment [1] of 1500 nM. `COc1ccc2ccc(S(=O)(=O)N(C)[C@H]3CCN(Cc4cc(C(=N)N)ccc4N)C3=O)cc2c1` [4-amino-3-{[(3S)-3-[(7-methoxynaphthalene-2-)(methyl)sulfonamido]-2-oxopyrrolidin-1-yl]methyl}benzene-1-carboximidamide] displayed an inhibition constant (Ki) in experiment [1] (pH 7.5, 22 °C) of 189 nM. The molecule `COC(=O)COc1ccc(C(=N)N)cc1CN1CC[C@H](NS(=O)(=O)c2ccc3ccc(OC)cc3c2)C1=O` [methyl 2-(4-carbamimidoyl-2-{[(3S)-3-[(7-methoxynaphthalene-2-)sulfonamido]-2-oxopyrrolidin-1-yl]methyl}phenoxy)acetate] displayed an inhibition constant (Ki) in experiment [1] (pH 7.5, 22 °C) of 12 nM. With `N=C(N)c1cccc(CN2CC[C@H](NS(=O)(=O)c3ccc(-c4cccnc4)s3)C2=O)c1` [3-[2-Oxo-3-(S)-(5-pyridin-3-ylthiophene-2-ylsulfonylamino)-pyrrolidin-1-ylmethyl]benzamidine], the inhibition constant (Ki) in experiment [1] was over 2900 nM.

`Cn1ccnc1-c1ccc(S(=O)(=O)N[C@H]2CCN(Cc3cccc(C(=N)N)c3)C2=O)cc1` [3-{[(3S)-3-{[4-(1-methyl-1H-imidazol-2-yl)benzene]sulfonamido}-2-oxopyrrolidin-1-yl]methyl}benzene-1-carboximidamide] registered a Ki in experiment [1] of over 2900 nM. In experiment [1], `N=C(N)c1cccc(CN2CC[C@H](NS(=O)(=O)c3ccc(-c4ccon4)s3)C2=O)c1` [3-[3-(S)-(5-Isoxazol-3-ylthiophene-2-ylsulfonylamino)-2-oxopyrrolidin-1-ylmethyl]benzamidine] had a Ki of 1900 nM.
